# Measurements taken from ChEMBL document CHEMBL1201862, “PubChem BioAssay data set” (2004).
# Activity calls are given as the source filed them.
# How the values were obtained:
# [1] = target: UDP-galactopyranose mutase (Mycobacterium tuberculosis, UniProt P9WIQ1); assay: Inhibitors of Mycobacterium tuberculosis UDP-galactopyranose mutase (UGM) enzyme Measured in Biochemical System Using Plate Reader - 2105-02_Inhibitor_Dose_CherryPick_Activity. [Related pubchem assays (depositor defined):AID504439]
# ORF 73 = target: T1, ORF 73 (Human herpesvirus 8, UniProt O40947); assay: KSHV LANA DNA-binding disruption – biochemical, fluorescence polarization, cherry-picked samples, dose response (AID 504725); parameters: species or system Human gammaherpesvirus 8;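 note: fluorescence polarization of a labeled DNA duplex reporting LANA DNA binding; potency is for inhibitors that block LANA binding to the DNA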
# T1 sequence (O40947 whole entry): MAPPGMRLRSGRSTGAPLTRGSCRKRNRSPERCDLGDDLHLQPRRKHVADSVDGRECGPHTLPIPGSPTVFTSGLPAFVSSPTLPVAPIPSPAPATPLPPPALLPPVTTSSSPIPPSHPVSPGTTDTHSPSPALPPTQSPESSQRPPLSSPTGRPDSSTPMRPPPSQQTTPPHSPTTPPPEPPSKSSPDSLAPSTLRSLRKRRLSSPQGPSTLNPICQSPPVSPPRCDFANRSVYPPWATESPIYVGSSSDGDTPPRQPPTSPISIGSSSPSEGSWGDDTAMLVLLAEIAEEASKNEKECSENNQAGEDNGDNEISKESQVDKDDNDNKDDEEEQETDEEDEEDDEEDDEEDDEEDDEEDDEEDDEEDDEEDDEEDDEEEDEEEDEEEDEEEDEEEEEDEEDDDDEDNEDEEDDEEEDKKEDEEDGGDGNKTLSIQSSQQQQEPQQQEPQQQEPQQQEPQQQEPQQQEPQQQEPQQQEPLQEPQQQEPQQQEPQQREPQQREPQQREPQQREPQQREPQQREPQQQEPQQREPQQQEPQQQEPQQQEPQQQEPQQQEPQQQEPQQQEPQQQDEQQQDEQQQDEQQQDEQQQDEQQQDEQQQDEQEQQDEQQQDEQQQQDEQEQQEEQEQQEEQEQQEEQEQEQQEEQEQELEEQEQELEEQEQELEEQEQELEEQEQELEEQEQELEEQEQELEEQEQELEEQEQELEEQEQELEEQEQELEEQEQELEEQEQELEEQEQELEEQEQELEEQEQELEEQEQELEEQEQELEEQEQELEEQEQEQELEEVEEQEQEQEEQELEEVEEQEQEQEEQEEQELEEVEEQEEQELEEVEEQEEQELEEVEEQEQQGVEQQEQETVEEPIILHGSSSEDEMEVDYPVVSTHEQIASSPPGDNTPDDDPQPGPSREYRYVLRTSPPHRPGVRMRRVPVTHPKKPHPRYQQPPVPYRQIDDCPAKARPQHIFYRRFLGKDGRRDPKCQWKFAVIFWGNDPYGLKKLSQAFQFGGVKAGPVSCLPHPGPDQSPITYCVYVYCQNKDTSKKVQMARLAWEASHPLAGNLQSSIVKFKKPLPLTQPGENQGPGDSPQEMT
# [2] = target: T2, RNA-binding protein pos-1 (Caenorhabditis elegans, UniProt G5EF15); assay: disruptors of C. elegans POS-1 RNA interaction – biochemical, fluorescence polarization, dose response (AID 1964);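 note: purified POS-1 fused to maltose binding protein made in E. coli; potency of compounds blocking POS-1 binding to fluorescent RNA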
# T2 sequence (G5EF15 whole entry): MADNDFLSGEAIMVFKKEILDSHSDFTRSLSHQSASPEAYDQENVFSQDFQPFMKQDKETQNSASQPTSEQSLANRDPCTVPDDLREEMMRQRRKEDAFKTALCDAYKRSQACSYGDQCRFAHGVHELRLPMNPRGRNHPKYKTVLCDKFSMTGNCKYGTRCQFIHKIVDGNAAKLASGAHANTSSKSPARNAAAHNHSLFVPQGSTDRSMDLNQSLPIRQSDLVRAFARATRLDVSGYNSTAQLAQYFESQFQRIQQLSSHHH
# [3] = target: T3, Zinc finger protein mex-5 (Caenorhabditis elegans, UniProt Q9XUB2); assay: potency of MEX-5 RNA-binding blockers – biochemical, C. elegans, fluorescence polarization, dose response (AID 1960)
# T3 sequence (Q9XUB2 whole entry): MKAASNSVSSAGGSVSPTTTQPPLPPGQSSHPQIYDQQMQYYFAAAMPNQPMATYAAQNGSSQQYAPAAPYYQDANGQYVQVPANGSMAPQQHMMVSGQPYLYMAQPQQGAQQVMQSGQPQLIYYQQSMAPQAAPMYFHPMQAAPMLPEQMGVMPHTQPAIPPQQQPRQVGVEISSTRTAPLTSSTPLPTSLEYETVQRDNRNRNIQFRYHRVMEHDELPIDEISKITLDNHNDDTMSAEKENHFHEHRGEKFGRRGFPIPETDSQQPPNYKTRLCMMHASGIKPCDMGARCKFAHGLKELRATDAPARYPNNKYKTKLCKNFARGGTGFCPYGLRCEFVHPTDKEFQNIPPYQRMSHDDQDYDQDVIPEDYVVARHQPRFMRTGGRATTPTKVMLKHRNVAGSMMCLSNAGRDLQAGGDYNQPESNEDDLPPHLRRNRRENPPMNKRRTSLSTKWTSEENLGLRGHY
# Escherichia coli [4] = assay: microbe, parasite or virus in culture
# Escherichia coli [5] = assay: microbe, parasite or virus in culture; remark: listed apart in the source
# [6] = viability loss in THP-1 monocytes – THP-1 cells, cytotoxicity control for Vif-APOBEC3G degradation inhibitor project, dose response (AID 1117359); assay type: functional; conditions: THP-1
# Nonstructural protein 1 = Nonstructural protein 1 (Influenza A virus, UniProt Q194T2); assay type: functional, Influenza A virus (A/California/07/2009(H1N1))
# Hexokinase HKDC1 = target: T4, Hexokinase HKDC1 (Homo sapiens, UniProt Q2TB90); assay: inhibition of HKDC1 glucose phosphorylation – biochemical, W721R variant, dose response (AID 504729); assay type: functional
# T4 sequence (Q2TB90 whole entry): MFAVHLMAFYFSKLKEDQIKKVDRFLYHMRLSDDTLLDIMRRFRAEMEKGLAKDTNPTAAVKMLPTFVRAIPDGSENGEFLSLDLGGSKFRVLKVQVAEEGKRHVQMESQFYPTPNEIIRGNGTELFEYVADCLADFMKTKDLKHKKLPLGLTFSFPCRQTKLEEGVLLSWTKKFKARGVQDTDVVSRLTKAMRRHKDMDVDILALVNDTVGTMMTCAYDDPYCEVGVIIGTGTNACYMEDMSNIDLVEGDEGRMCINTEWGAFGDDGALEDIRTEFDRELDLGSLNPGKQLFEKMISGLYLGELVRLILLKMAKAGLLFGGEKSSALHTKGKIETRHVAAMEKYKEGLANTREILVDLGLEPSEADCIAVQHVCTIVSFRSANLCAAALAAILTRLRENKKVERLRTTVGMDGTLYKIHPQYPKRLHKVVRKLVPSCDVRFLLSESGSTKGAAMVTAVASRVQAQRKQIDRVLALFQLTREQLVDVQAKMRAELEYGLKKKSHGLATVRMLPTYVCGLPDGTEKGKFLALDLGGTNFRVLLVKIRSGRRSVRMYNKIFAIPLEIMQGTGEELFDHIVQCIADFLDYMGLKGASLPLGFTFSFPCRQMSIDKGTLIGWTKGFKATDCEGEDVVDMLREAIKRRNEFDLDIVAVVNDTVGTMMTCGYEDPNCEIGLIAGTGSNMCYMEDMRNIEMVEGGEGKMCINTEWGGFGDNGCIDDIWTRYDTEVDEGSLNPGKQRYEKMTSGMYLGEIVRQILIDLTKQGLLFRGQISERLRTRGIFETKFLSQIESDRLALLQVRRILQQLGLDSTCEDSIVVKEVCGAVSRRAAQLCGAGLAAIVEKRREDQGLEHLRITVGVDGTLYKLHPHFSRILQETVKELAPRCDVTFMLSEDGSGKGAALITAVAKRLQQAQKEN
# [7] = target: Glucose-6-phosphate 1-dehydrogenase (Homo sapiens, UniProt P11413); assay: inhibition of Homo sapiens G6PD, dose series – biochemical, fluorescence, selectivity assay for P. falciparum G6PD inhibitor project, dose response (AID 504792); assay type: functional
# [8] = target: T5, Histone-lysine N-methyltransferase NSD2 (Homo sapiens, UniProt O96028); assay type: biochemical
# T5 sequence (O96028 whole entry): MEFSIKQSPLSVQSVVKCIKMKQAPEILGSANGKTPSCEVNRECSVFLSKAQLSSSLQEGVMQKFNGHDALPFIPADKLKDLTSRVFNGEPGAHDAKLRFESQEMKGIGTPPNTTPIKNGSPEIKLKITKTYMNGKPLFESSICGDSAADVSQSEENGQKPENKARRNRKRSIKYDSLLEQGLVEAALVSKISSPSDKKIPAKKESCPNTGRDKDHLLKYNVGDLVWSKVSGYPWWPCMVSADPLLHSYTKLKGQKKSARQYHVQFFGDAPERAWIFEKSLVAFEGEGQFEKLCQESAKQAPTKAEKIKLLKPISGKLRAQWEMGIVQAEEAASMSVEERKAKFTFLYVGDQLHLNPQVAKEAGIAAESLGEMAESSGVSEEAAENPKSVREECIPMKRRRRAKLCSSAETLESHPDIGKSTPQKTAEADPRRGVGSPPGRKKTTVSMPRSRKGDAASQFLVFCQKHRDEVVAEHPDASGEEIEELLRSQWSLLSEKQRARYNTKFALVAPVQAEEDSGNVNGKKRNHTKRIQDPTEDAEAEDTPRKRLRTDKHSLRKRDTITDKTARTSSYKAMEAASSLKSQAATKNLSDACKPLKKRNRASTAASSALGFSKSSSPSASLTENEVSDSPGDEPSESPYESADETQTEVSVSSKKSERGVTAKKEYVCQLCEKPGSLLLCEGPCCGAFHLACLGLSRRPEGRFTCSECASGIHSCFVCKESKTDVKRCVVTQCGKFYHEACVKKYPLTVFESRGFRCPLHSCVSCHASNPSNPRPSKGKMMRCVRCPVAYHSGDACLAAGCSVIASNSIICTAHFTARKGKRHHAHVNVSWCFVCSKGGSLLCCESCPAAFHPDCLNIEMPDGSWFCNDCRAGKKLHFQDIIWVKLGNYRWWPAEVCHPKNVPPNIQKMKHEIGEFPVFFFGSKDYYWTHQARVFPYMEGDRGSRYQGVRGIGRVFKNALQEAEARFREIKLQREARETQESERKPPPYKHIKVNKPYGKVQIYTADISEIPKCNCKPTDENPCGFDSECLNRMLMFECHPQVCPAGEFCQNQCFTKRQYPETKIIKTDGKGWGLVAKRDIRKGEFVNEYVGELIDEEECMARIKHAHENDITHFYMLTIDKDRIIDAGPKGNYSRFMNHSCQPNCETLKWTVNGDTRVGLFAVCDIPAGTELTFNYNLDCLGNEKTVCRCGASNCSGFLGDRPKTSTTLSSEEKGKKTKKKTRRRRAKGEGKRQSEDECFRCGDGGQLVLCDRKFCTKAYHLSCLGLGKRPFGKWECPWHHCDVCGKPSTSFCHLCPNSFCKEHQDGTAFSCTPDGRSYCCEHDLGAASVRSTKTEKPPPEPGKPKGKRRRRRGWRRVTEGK
# Vero = assay: viability of Vero cells under compound – cytotoxicity control for flavivirus capping enzyme inhibitors (AID 588742); assay type: functional; conditions: Chlorocebus sabaeus
# Beta-galactosidase = Beta-galactosidase (Escherichia coli, UniProt Q8VNN2); assay: detection-enzyme interference by beta-gal modulators – biochemical, E. coli enzyme, set 3, artefact control for CCR6 antagonist project, dose response (AID 504712); assay type: functional
# Genome polyprotein = Genome polyprotein (dengue virus type 2, UniProt P29990); assay: flavivirus cap methylation enzyme inhibition – biochemical, confirmation dose response, primary screen (AID 588689); assay type: functional
# [9] = target: Opioid receptors; mu & delta (Homo sapiens, UniProt P41143+P35372); assay: OPRM1-OPRD1 heterodimer agonist potency – cell-based, luminescence, dose response (AID 588407); assay type: functional
# Mu-type opioid receptor = Mu-type opioid receptor (Homo sapiens, UniProt P35372); assay: (§1) Counterscreen for agonists of heterodimerization of the mu 1 (OPRM1) and delta 1 (OPRD1) opioid receptors: Luminescence-based cell-based high throughput dose response assay to identify agonists of OPRM1 homodimerization.; assay type: functional
# [10] = target: Delta-type opioid receptor (Homo sapiens, UniProt P41143); assay: as §1, with “of OPRD1” for “of OPRM1”, “homodimerization. [Related pubchem assays (depositor defined):AID504326, AID504355, AID504692, AID504904, AID504905]” for “homodimerization.”; assay type: functional
# [11] = target: 5-hydroxytryptamine receptor 5A (Homo sapiens, UniProt P47898); assay: Counterscreen for agonists of OPRM1-OPRD1 heterodimerization: luminescence-based cell-based high throughput dose response assay to identify agonists of 5-hydroxytryptamine (serotonin) 5A receptor (HTR5A). [Related pubchem assays (depositor defined):AID504326, AID504355, AID504692, AID504904, AID504905]; assay type: functional
# Chain of 5-hydroxytryptamine receptor 5A (P47898 whole entry): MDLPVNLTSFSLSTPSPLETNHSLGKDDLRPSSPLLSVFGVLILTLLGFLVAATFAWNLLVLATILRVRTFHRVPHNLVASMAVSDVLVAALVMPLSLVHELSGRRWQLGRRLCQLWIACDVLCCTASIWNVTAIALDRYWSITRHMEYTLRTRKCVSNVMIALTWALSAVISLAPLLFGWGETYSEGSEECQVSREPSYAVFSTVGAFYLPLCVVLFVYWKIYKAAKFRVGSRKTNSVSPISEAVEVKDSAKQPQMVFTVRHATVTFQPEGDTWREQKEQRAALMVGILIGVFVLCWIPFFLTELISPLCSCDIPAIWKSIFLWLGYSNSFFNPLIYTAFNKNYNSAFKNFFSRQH
# Chain of Mu-type opioid receptor (P35372 whole entry): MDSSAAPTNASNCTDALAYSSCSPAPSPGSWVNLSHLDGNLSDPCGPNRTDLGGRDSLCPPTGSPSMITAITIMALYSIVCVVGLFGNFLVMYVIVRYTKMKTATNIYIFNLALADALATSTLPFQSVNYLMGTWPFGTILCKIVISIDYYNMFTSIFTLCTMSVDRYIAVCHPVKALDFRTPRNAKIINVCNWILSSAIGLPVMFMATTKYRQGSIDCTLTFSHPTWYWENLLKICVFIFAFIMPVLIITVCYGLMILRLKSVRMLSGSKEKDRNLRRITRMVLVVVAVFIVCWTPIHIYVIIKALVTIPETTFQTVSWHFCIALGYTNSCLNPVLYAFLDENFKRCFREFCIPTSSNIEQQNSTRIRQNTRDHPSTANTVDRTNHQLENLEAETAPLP
# Chain of Delta-type opioid receptor (P41143 whole entry): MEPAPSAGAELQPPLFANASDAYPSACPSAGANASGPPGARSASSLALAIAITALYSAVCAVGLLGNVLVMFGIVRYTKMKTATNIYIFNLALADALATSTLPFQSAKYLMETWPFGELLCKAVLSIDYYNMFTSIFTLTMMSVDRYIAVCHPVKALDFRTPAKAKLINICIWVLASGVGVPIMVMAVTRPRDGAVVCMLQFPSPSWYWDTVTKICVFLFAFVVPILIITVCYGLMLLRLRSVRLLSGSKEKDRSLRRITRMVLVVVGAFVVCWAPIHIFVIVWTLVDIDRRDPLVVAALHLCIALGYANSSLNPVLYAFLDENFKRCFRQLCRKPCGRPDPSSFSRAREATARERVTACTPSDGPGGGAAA
# Chain of Beta-galactosidase (Q8VNN2 whole entry): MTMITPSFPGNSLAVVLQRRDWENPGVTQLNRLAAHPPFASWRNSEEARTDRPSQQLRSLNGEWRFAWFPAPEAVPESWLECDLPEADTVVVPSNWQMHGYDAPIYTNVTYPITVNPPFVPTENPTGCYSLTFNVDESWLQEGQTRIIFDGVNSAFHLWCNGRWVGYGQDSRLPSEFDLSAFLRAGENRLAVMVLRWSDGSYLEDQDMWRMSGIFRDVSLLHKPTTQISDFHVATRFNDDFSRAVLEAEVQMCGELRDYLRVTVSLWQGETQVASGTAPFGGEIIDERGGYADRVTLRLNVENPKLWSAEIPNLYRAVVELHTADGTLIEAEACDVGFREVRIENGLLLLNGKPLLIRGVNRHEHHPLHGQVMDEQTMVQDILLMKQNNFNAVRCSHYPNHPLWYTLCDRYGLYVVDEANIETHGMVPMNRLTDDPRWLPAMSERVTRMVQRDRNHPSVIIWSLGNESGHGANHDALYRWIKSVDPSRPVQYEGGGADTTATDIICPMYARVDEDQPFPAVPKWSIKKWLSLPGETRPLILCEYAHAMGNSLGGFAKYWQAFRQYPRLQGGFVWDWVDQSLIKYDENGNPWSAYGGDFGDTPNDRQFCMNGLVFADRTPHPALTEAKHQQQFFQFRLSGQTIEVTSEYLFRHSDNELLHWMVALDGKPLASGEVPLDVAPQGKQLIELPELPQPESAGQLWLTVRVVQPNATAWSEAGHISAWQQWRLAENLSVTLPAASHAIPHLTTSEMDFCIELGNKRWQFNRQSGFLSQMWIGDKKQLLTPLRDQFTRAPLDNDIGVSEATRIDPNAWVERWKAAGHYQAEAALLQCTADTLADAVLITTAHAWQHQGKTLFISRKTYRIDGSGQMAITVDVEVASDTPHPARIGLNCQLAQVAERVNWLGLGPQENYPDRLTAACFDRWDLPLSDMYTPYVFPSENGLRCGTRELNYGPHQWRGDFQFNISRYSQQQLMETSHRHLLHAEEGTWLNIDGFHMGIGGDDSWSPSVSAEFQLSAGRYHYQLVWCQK
# Chain of Nonstructural protein 1 (Q194T2 whole entry): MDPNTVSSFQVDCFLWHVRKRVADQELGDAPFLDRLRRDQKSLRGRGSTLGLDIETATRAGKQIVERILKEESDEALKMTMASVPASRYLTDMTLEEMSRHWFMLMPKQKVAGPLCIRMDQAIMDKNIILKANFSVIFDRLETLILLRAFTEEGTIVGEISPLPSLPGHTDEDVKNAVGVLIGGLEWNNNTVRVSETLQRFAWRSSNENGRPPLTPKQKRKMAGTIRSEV
# Chain of Glucose-6-phosphate 1-dehydrogenase (P11413 whole entry): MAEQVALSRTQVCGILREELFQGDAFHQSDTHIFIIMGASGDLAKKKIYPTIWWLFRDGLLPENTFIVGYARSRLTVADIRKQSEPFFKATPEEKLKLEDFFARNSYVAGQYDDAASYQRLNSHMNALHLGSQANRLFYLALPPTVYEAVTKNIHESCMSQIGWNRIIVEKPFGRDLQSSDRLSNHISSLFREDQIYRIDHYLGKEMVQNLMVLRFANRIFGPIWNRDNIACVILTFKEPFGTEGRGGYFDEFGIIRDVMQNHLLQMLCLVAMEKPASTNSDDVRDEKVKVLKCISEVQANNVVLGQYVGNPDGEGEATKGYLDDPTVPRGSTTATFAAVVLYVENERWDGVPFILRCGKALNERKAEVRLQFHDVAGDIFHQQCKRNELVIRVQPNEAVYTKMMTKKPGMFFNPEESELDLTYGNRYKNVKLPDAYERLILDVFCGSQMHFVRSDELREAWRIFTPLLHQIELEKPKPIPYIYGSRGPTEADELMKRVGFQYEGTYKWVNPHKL
# Chain of UDP-galactopyranose mutase (P9WIQ1 whole entry): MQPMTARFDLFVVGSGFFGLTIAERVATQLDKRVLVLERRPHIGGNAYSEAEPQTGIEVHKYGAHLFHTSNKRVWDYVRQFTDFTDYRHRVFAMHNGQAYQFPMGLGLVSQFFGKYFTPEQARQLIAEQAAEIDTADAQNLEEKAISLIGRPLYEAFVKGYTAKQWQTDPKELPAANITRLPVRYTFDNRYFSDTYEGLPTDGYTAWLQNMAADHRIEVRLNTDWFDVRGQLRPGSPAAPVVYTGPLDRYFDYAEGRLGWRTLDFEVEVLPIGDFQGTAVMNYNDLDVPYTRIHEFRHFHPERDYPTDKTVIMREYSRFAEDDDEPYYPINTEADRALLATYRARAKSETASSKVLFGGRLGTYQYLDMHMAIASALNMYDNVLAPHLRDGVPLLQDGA
# Chain of Genome polyprotein (P29990 2492-3391 limits assumed): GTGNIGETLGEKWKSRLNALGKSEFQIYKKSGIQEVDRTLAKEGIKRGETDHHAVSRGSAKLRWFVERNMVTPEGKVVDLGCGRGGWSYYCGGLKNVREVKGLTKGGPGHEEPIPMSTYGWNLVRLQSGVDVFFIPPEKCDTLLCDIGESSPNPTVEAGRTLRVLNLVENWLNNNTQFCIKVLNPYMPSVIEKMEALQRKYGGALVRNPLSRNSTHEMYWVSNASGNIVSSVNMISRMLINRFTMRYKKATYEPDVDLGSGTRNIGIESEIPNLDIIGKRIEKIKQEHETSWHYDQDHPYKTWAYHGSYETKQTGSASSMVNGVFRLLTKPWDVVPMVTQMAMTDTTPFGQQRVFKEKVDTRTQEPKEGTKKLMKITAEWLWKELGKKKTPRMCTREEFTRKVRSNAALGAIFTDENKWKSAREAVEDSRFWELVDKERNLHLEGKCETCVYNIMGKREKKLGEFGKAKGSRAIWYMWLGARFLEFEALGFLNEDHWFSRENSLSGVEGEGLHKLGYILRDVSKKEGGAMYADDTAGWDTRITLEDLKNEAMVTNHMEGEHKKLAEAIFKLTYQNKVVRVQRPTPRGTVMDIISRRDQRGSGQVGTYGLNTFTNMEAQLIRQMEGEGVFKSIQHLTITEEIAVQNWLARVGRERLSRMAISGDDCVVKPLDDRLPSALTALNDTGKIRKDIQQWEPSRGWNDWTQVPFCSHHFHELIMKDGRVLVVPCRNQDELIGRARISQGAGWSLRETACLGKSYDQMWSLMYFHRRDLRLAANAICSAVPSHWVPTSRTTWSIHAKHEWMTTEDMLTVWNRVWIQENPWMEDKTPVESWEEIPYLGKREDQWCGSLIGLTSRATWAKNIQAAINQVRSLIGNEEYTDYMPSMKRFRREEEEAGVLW
compound,measurement,setting,value
Cc1ccc(C)c(N2CCN(C(=O)c3cc4ccccn4n3)CC2)c1,AC50,[1],177 µM (active)
same,AC50,ORF 73,269 µM (active)
same,EC50,[2],72.9 µM (active)
same,EC50,[3],33.7 µM (active)
Cc1nn(C)cc1S(=O)(=O)Nc1ccccc1Br,AC50,Escherichia coli [4],66.8 µM (active)
same,AC50,Escherichia coli [5],65.8 µM (active)
CC1COCC(C)N1C1=C(Cl)C(=O)c2ccccc2C1=O (stereo not drawn),CC50,[6],16.1 µM (active)
same,IC50,Nonstructural protein 1,17.9 µM (active)
same,IC50,Hexokinase HKDC1,> 80 µM (inactive)
same,IC50,[7],72.9 µM (inactive)
same,AC50,[8],0.873 µM (active)
same,CC50,Vero,23.4 µM (active)
same,IC50,Beta-galactosidase,> 66.6 µM (inactive)
same,IC50,Genome polyprotein,16.2 µM (active)
COc1ccc(NC(=O)COc2ccccc2C(=O)NCC(c2ccccc2)N(C)C)cc1Cl (stereo not drawn),EC50,[9],> 3.425 µM
same,EC50,Mu-type opioid receptor,> 92.5 µM (inactive)
same,EC50,[10],9.79 µM (active)
same,EC50,[11],> 92.5 µM (inactive)
